From ChEMBL document CHEMBL5038609, “A camptothecin-based, albumin-binding prodrug enhances efficacy and safety in vivo” (Eur J Med Chem, 2021) come the findings set out here.

For data set [1], the system named is A549. Kind of data set: Antiproliferative activity against human A549 cells assessed as reduction on cell proliferation measured after 72 hrs by MTT assay. The format is functional, cell-based. Background: Tetrazolium dyes change colour on reduction, which living cells bring about.
For data set [2], the system named is HCT-116. Description: Antiproliferative activity against human HCT-116 cells assessed as reduction on cell proliferation measured after 72 hrs by MTT assay. The format is functional, cell-based.
For data set [3], the system named is MCF7. Kind of data set: Antiproliferative activity against human MCF7 cells assessed as reduction on cell proliferation measured after 72 hrs by MTT assay. Format: functional, cell-based.
Data set [4] deals with T1, albumin (Homo sapiens, UniProt P02768). Kind of data set: Protein binding in human serum albumin measured after 0.25 mins by HPLC analysis. Format: ADME, cell-free. As to conditions: read-out: PPB (converted).
Data set [5] deals with T1, albumin. Description: Protein binding in human serum albumin measured after 8 mins by HPLC analysis. The settings on record: read-out: PPB (converted). Format: ADME, cell-free.
Data set [6] in a line: Toxicity in female BALB/c mouse assessed as body weight loss at 1 to 10 mg/kg, iv administered once daily for 14 consecutive days. The format is organism-based. The settings on record: in vivo, 336 h, dose 1-10 mg/kg, time 14 day.
Data set [7] is described as follows: Plasma protein binding in male Sprague-Dawley rat measured after 0.25 mins by HPLC analysis. Format: ADME, cell-free. As to conditions: read-out: PPB (converted).
Data set [8] in a line: Plasma protein binding in female BALB/c mouse measured after 0.25 mins by HPLC analysis. The format is ADME, cell-free. As to conditions: read-out: PPB (converted).
The nature of data set [9]: Plasma protein binding in female BALB/c mouse measured after 2 mins by HPLC analysis. The format is ADME, cell-free. The settings on record: read-out: PPB (converted).
Data set [10] in a line: Plasma protein binding in male Sprague-Dawley rat measured after 2 mins by HPLC analysis. Format: ADME, cell-free. As to conditions: read-out: PPB (converted).
A short description of data set [11]: Plasma protein binding in human measured after 0.25 mins by HPLC analysis. Format: ADME, cell-free. The settings on record: read-out: PPB (converted).
Data set [12] can be described thus: Plasma protein binding in human measured after 2 mins by HPLC analysis. The settings on record: read-out: PPB (converted). Format: ADME, cell-free.
Data set [13] relates to HepG2. Description: Antiproliferative activity against human HepG2 cells assessed as reduction on cell proliferation measured after 72 hrs by MTT assay. The format is functional, cell-based.
The subject of data set [14] is 4T1. Description: Antiproliferative activity against mouse 4T1 cells assessed as reduction on cell proliferation measured after 72 hrs by MTT assay. The format is functional, cell-based.
Data set [15] relates to 4T1. Kind of data set: Antitumor activity against mouse 4T1 cells implanted in female BALB/c mouse assessed as inhibition of tumor growth at 0.6 mg/kg, iv administered twice a week for 2 weeks measured on day 18. The format is functional. More on the design: scale not given: the % may be the effect or the level left. As to conditions: time 18 day.
Data set [16] deals with 4T1. Description: Antitumor activity against mouse 4T1 cells implanted in female BALB/c mouse assessed as inhibition of tumor growth at 1.2 mg/kg, iv administered twice a week for 2 weeks measured on day 18. Format: functional. More on the design: scale not given: the % may be the effect or the level left. The settings on record: time 18 day.
A short description of data set [17]: Toxicity in mouse 4T1 cells implanted in female BALB/c mouse assessed as pathological changes in heart at 0.6 to 1.2 mg/kg, iv by H and E staining based analysis. The format is organism-based. As to conditions: in vivo, dose 0.6-1.2 mg/kg.
A short description of data set [18]: Toxicity in mouse 4T1 cells implanted in female BALB/c mouse assessed as pathological changes in kidney at 0.6 to 1.2 mg/kg, iv by H and E staining based analysis. The format is organism-based. The settings on record: in vivo, dose 0.6-1.2 mg/kg.
The nature of data set [19]: Toxicity in mouse 4T1 cells implanted in female BALB/c mouse assessed as pathological changes in liver at 0.6 to 1.2 mg/kg, iv by H and E staining based analysis. The format is organism-based. The settings on record: in vivo, dose 0.6-1.2 mg/kg.
The nature of data set [20]: Toxicity in mouse 4T1 cells implanted in female BALB/c mouse assessed as pathological changes in lung at 0.6 to 1.2 mg/kg, iv by H and E staining based analysis. Format: organism-based. As to conditions: in vivo, dose 0.6-1.2 mg/kg.
Data set [21] can be described thus: Toxicity in mouse 4T1 cells implanted in female BALB/c mouse assessed as pathological changes in spleen at 0.6 to 1.2 mg/kg, iv by H and E staining based analysis. Format: organism-based. The settings on record: in vivo, dose 0.6-1.2 mg/kg.
Data set [22] concerns 4T1. Description: Antitumor activity against mouse 4T1 cells implanted in female BALB/c mouse assessed as tumor cell apoptosis at 0.6 to 1.2 mg/kg, iv by TUNEL staining based fluorescence assay. Format: functional, organism-based. The settings on record: dose 0.6-1.2 mg/kg.
The subject of data set [23] is 4T1. Description: Antitumor activity against mouse 4T1 cells implanted in female BALB/c mouse assessed as inhibition of tumor growth at 0.6 to 1.2 mg/kg, iv by Ki67 staining based assay. Format: functional, organism-based. The settings on record: dose 0.6-1.2 mg/kg.
The nature of data set [24]: Drug distribution in mouse 4T1 cells implanted in female BALB/c mouse assessed as fold change in tumor at 1.2 mg/kg, iv measured after 2 hrs by fluorescence detector. Format: ADME, organism-based, Neoplasm. As to conditions: in vivo.
A short description of data set [25]: Drug distribution in mouse 4T1 cells implanted in female BALB/c mouse assessed as fold change in tumor at 1.2 mg/kg, iv measured after 6 hrs by fluorescence detector. The format is ADME, organism-based, Neoplasm. The settings on record: in vivo.
Data set [26] can be described thus: Drug distribution in mouse 4T1 cells implanted in female BALB/c mouse assessed as fold change in tumor at 1.2 mg/kg, iv measured after 24 hrs by fluorescence detector. The format is ADME, organism-based, Neoplasm. As to conditions: in vivo.
The subject of data set [27] is A549. Kind of data set: Antiproliferative activity against human A549 cells assessed as reduction on cell proliferation in presence of beta-glucuronidase measured after 72 hrs by MTT assay. Format: functional, cell-based.
The nature of data set [28]: Drug distribution in mouse 4T1 cells implanted in female BALB/c mouse assessed as fold change in tumor at 1.2 mg/kg, iv measured after 48 hrs by fluorescence detector. The format is ADME, organism-based, Neoplasm. As to conditions: in vivo.
The nature of data set [29]: Toxicity in iv dosed female BALB/c mouse assessed as maximum tolerated dose administered once daily for 14 consecutive days. Format: organism-based. The settings on record: in vivo, time 14 day.
Data set [30] in a line: Drug accumulation in mouse 4T1 cells implanted female BALB/c mouse tumor at 1.2 mg/kg, iv after 6 hrs by fluorescence detector. The format is ADME, organism-based, Neoplasm. As to conditions: in vivo.
Data set [31] has as its system HepG2. Kind of data set: Antiproliferative activity against human HepG2 cells assessed as reduction on cell proliferation in presence of beta-glucuronidase measured after 72 hrs by MTT assay. The format is functional, cell-based.
Data set [32] has as its system 4T1. Description: Antiproliferative activity against mouse 4T1 cells assessed as reduction on cell proliferation in presence of beta-glucuronidase measured after 72 hrs by MTT assay. Format: functional, cell-based.
Data set [33] relates to HCT-116. Description: Antiproliferative activity against human HCT-116 cells assessed as reduction on cell proliferation in presence of beta-glucuronidase measured after 72 hrs by MTT assay. The format is functional, cell-based.
In data set [34] the test system is MCF7. Description: Antiproliferative activity against human MCF7 cells assessed as reduction on cell proliferation in presence of beta-glucuronidase measured after 72 hrs by MTT assay. The format is functional, cell-based.
For data set [35], the system named is 4T1. Kind of data set: Antitumor activity against mouse 4T1 cells implanted in female BALB/c mouse assessed as reduction on tumor volume at 0.6 to 1.2 mg/kg, iv administered twice a week for 2 weeks. The format is functional, organism-based. As to conditions: dose 0.6-1.2 mg/kg.
Data set [36] has as its system Mus musculus. Description: Antitumor activity against mouse 4T1 cells implanted in female BALB/c mouse assessed as increase in body weight at 0.6 to 1.2 mg/kg, iv administered twice a week for 2 weeks. As to conditions: dose 0.6-1.2 mg/kg. The format is functional, organism-based.
Data set [37] is described as follows: Drug accumulation in mouse 4T1 cells implanted female BALB/c mouse lung at 0.5 mg/kg, iv by fluorescence detector. Format: ADME, organism-based. The settings on record: in vivo.
The nature of data set [38]: Toxicity in female BALB/c mouse assessed as body weight loss at 0.2 to 1.2 mg/kg, iv administered once daily for 14 consecutive days. Format: organism-based. The settings on record: in vivo, 336 h, dose 0.2-1.2 mg/kg, time 14 day.
The subject of data set [39] is 4T1. Kind of data set: Antitumor activity against mouse 4T1 cells implanted in female BALB/c mouse assessed as inhibition of tumor growth at 0.5 mg/kg, iv administered twice a week for 2 weeks measured on day 18. The arrangement: scale not given: the % may be the effect or the level left. Format: functional. The settings on record: time 18 day.
Data set [40] is described as follows: Drug accumulation in mouse 4T1 cells implanted female BALB/c mouse kidney at 0.5 mg/kg, iv by fluorescence detector. Format: ADME, organism-based. As to conditions: in vivo.
In data set [41] the test system is Mus musculus. Description: Antitumor activity against mouse 4T1 cells implanted in female BALB/c mouse assessed as increase in body weight at 0.5 mg/kg, iv administered twice a week for 2 weeks. The format is functional, organism-based.
The test system of data set [42] is 4T1. Kind of data set: Antitumor activity against mouse 4T1 cells implanted in female BALB/c mouse assessed as reduction on tumor volume at 0.5 mg/kg, iv administered twice a week for 2 weeks. The format is functional, organism-based.
Data set [43] can be described thus: Drug accumulation in mouse 4T1 cells implanted female BALB/c mouse tumor at 0.5 mg/kg, iv after 2 hrs by fluorescence detector. Format: ADME, organism-based, Neoplasm. The settings on record: in vivo.

The source made the active and inactive calls. The rule behind the calls is not given here.

T1 sequence (P02768 whole entry): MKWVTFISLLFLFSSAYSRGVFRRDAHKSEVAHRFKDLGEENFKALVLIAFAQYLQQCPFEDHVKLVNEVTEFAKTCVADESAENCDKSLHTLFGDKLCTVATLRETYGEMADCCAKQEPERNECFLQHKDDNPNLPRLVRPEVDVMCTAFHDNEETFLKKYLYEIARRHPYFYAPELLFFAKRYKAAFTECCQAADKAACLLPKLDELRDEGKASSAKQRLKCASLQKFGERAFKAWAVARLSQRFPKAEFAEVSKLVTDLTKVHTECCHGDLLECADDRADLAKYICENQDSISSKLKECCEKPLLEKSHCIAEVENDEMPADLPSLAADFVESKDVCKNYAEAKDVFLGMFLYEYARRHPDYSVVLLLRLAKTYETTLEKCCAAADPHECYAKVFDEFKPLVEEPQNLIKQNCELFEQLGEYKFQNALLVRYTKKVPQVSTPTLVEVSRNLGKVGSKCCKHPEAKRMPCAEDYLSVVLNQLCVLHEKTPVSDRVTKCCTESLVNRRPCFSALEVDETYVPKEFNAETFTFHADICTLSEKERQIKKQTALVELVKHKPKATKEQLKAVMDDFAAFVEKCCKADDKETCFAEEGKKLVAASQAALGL

The term MTD denotes the largest dose that counted as tolerated. Regarding `CC[C@@]1(O)C(=O)OCc2c1cc1n(c2=O)Cc2c-1nc1cc3c(cc1c2-c1cc[n+](Cc2ccc(O[C@@H]4O[C@@H](C(=O)O)[C@@H](O)[C@H](O)[C@H]4O)c(NC(=O)CCCn4cc(CNC(=O)CCCCCN5C(=O)C=CC5=O)nn4)c2)cc1)OCO3.O=C([O-])C(F)(F)F`, the outcome in data set [1], in [2], in data set [3], in data set [13], in data set [14] and in [22] was Active. The outcome in data set [23], in data set [27], in [31], in [32], in data set [33] and in data set [34] was Active. For the same compound, the result in data set [35] and in data set [36] was Active. Besides, the fraction unbound at 15 s in [4] was 0.0679; in [7], 0.0224; in data set [8], 0.0723; in data set [11], 0.034. For the same compound, the fraction unbound at 8 min in [5] is 0.015. The Activity in [6] is reported as 10%; in data set [15], 56%; in data set [16], 77%; in data set [17], “Non-Toxic”; in data set [18], “Non-Toxic”; in [19], “Non-Toxic”. Also, the Activity result in [20] and in data set [21] was “Non-Toxic” in each case. The fraction unbound at 2 min is 0.0512 in [9], 0.0188 in [10] and 0.0291 in data set [12]. Further, the “fold change (FC)” value in data set [24] is reported as 9; in data set [25] it was 18; in data set [26] it was 16; in [28] it was 14. Further, the MTD at 336 h in data set [29] is 2.5 mg/kg. Moreover, in [30], the Drug uptake worked out at 17.34%.

In the case of `CC[C@@]1(O)C(=O)OCc2c1cc1n(c2=O)Cc2c-1nc1cc3c(cc1c2-c1ccncc1)OCO3`, the Drug uptake entry in [37] is given as “Active”; in data set [40] it was “Active”; in [43] it was 1.09%. In addition, the Activity in data set [38] worked out at 10%; in data set [39], 27%. The MTD at 336 h in [29] is 0.4 mg/kg. Also, the outcome in data set [41] and in [42] was Active.
